Our source for the IC50 values is patent US20260028352A1, “MACROCYCLIC IMIDAZO [1,2-B] PYRIDAZINE DERIVATIVE, PREPARATION METHOD THEREFOR, AND USE THEREOF” (SUZHOU LANGRUI BIOPHARMACEUTICAL CO., LTD., priority 2022, published 2026).

One assay deals with TRKA^WT kinase (Homo sapiens (Human), UniProt P04629). Kind of assay: Inhibitory activity against TRKA WT kinase (Caliper mobility shift). To be noted: in vitro kinase assay. Type of assay: biochemical. How it is done:
Kinase Assay Process: 1× Kinase buffer was prepared. […] The compounds were serially diluted into 10 concentrations ([…], 0.15, and 0.05 nM) using a Precision 3-fold dilution method. By using the Echo550 liquid handler, 250 nL of the 100-fold final concentration compound was transferred to an OptiPlate-384F plate. a 2.5× final concentration kinase solution was prepared using 1× Kinase buffer. 10 μL of the 2.5× final concentration kinase solution was added to the compound wells and the positive control wells, and 10 μL of 1× Kinase buffer was added to the negative control wells. The plate was centrifuged at 1000 rpm for 30 seconds, vortexed for mixing, and then incubated at room temperature for 10 minutes. A mixture of 5/3× final concentration of ATP and Kinase Substrate 22 was prepared using 1× Kinase buffer. 15 μL of the mixture of the 5/3× final concentration ATP and the substrate was added to initiate the reaction, the 384-well plate was centrifuged at 1000 rpm for 30 seconds, vortexed for mixing, and incubated at room temperature for the required time. 30 μL of the termination solution was added to stop the kinase reaction, the plate was centrifuged at 1000 rpm for 30 seconds, and vortexed for mixing. The conversion rate was measured using the Caliper EZ Reader.
Data Analysis: the inhibition rate was calculated as follows:
% Inhibition=(Conversion %_max−conversion %_sample)÷(Conversion %_max−conversion %_min)×100
Conversion %_sample is the conversion rate reading for the sample; Conversion %_min is the average value of the negative control wells, representing the conversion rate for wells without enzyme activity: Conversion %_max is the average value of the positive control wells, representing the conversion rate for wells without compound inhibition. A dose-response curve was fitted using the log concentration of the compound as the X-axis and the percentage inhibition as the Y-axis. The log(inhibitor) vs. response-variable slope of the GraphPad Prism 5 software was used to fit the dose-response curve, and the IC50 value for each compound was obtained. The calculation formula is:
Y=Bottom+(Top−Bottom)/(1+10^((Log IC50−X)*HillSlope)).
wherein X represents the concentration of the compound to be tested; Y represents the inhibition rate at the concentration X: Top refers to the maximum response: Bottom refers to the baseline response; HillSlope refers to the slope of the curve (i.e., the gradient).

Assay [1] concerns Ba/F3-TPM3-NTRK1-G667C cells. In words: Growth inhibition of Ba/F3-TPM3-NTRK1-G667C cells (Cell Titer-Glo). Type of assay: cell-based. As to conditions: 72 hours, CTG; read-out: inhibitory activity IC50 Ba/F3-TPM3-NTRK1-G667C. As to the method: Then the solutions were subjected to a gradient dilution with DMSO: a clean, sterile V-bottom 96-well microplate was placed in the biological safety cabinet. First, 4 μL of DMSO was added to well B2 and 10 μL of DMSO was added to wells B3-B11 respectively; Next, 6 μL of the 10 mM solution was added to well B2. The microplate was pipetted up and down 10 times for mixing. […] Mixing was performed by pipetting up and down 10 times. The solution was diluted in order until well B10. only DMSO was added to well B11 (no compound).
6× Compound Solution Preparation (6-fold dilution, × represents dilution factor): (Initial final concentration: 10 μM), a clean, sterile V-bottom 96-well microplate was placed in the biological safety cabinet. 99 μL of cell culture medium was added to each well from B2 to G11. By using a 12-channel pipettor, 1 μL of the compound solution prepared in the previous step was added into the corresponding wells. The solutions were pipetted up and down 10 times to mix the solutions. The highest concentration of compound in this step was 60 μM.
Treatment of Cells: the above-prepared cell culture plate was taken out of the incubator. 20 μL of compound solution from each well was added to the corresponding cell culture wells. The lowest pipetting speed was used and touching the bottom of the plate was avoided. The culture plate was gently shaked to mix the compound solution, then the plate was returned to the incubator for further culture for 72 hours.
The highest treatment concentration of the compound was 10 μM. After 72 hours of treatment, the Cell Titer-Glo (CTG) assay was performed. First, the cell culture plate was removed from the CO2 incubator and allowed to stand at room temperature for 30 minutes to ensure uniform temperature of the plate. The pre-prepared Cell Titer-Glo reagent (following the manufacturer's instructions) was taken and allowed to stand at room temperature to thaw. 60 μL of Cell Titer-Glo reagent was added to each well containing cells. The cells were incubated on a horizontal shaker in a dark place at 225 rpm for 1 hour at room temperature. Then, a Tecan Spark microplate reader was used to read the plate using chemiluminescence according to the manufacturer's instructions.
(In general: ATP-based viability assays read luminescence as a measure of living cells.)

TRKA^WT kinase, sequence (P04629 33-796): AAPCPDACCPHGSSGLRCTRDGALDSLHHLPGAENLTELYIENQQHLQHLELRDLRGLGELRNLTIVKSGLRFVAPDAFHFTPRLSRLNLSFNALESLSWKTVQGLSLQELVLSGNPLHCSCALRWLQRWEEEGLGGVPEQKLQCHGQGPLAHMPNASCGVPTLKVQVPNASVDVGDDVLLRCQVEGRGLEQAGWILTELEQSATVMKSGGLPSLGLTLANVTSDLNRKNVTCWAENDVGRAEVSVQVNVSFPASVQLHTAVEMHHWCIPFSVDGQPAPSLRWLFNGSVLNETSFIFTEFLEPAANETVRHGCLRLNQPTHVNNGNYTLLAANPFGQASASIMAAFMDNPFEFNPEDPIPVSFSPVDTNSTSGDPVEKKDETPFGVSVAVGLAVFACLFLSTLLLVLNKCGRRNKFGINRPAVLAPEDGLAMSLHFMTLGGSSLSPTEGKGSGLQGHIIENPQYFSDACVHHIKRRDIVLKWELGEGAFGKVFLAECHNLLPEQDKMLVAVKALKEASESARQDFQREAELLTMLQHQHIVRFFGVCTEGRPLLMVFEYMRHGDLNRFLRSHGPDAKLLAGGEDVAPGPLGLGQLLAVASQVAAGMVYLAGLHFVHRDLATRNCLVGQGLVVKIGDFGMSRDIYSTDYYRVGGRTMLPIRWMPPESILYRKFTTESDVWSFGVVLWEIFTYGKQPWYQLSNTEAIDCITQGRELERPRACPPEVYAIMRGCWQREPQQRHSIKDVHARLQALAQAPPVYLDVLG

As for “(S)-(E)-5^5-fluoro-6-methyl-3-oxa-7-aza-1(3,6)-imidazo[1,2-b]pyridazina-2(2,4), 5(2,3)-dipyridinacycloheptaphane [Example I-25]”, the IC50 on TRKA^WT kinase amounted to 5.1 nM.
For the compound `C[C@@H]1Nc2ccc3ncc(n3n2)-c2cc(ccn2)COc2ncccc21` [Example I-21, (6S,E)-6-methyl-4-oxa-7-aza-1(3,6)-imidazo[1,2-b]pyridazina-2(2,4), 5(2,3)-dipyridinacycloheptaphane], the IC50 at TRKA^WT kinase turned out to be 6.1 nM.
For the compound `C[C@@H]1Nc2ccc3ncc(n3n2)-c2cc(ccn2)OCc2ccc(F)cc21` [Example I-31, (S)-(E)-5^4-fluoro-6-methyl-3-oxa-7-aza-1(3,6)-imidazo[1,2-b]pyridazina-2(2,4)-pyridina-5(1,2)-benzenacycloheptaphane], the IC50 on TRKA^WT kinase worked out at 5.7 nM.
Consider `C[C@@H]1Nc2ccc3ncc(n3n2)-c2cc(ccn2)COc2ccc(F)cc21` [Example I-15, (S)-(E)-5′-fluoro-6-methyl-4-oxa-7-aza-1(3,6)-imidazo[1,2-b]pyridazina-2(2,4)-pyridina-5(1,2)-benzenacycloheptaphane], for which, at TRKA^WT kinase, the IC50 turned out to be 4.8 nM.
On to `C[C@@H]1Nc2ccc3ncc(n3n2)-c2cc(ccn2)CCOc2ccccc21` [Example I-29, (4S,E)-4-methyl-6-oxa-3-aza-2(3,6)-imidazo [1,2-b]pyridazina-1(2,4)-pyridina-5(1,2)-benzenacyclooctaphane], for which the IC50 at TRKA^WT kinase was determined as 4.9 nM.
In the case of `C[C@@H]1Nc2ccc3ncc(n3n2)-c2cc(ncn2)COc2ccccc21` [Example I-27, (6S,E)-6-methyl-4-oxa-7-aza-1(3,6)-imidazo[1,2-b]pyridazina-2(4,6)-pyrimidina-5(1,2)-benzenacycloheptaphane], the IC50 at TRKA^WT kinase amounted to 3.7 nM.
With `C[C@@H]1Nc2ccc3ncc(n3n2)-c2cncc(c2)COc2ccc(F)cc21` [Example I-23, (S)-(E)-5^4-fluoro-6-methyl-4-oxa-7-aza-1(3,6)-imidazo[1,2-b]pyridazina-2(3,5)-pyridina-5(1,2)-benzenacycloheptaphane], the IC50 on TRKA^WT kinase came out at 4.8 nM.
Same read-out and setting: with `C[C@@H]1Nc2ccc3ncc(n3n2)-c2cc(ccn2)COc2ccccc21` [Example I-19, (S)-(E)-6-methyl-4-oxa-7-aza-1(3,6)-imidazo[1,2-b]pyridazine-2(2,4)-pyridina-5(1,2)-benzenacycloheptaphane] the figure was 5.7 nM.
As for `Fc1ccc2c(c1)[C@H]1CCCN1c1ccc3ncc(n3n1)-c1cc(ccn1)[C@H]1CCC[C@H]1O2` [Example I-45, (8aR,11aR,16bR,E)-15-fluoro-8a,10,11,11a,16b,17,18,19-octahydro-9H-1,21-etheno-4,8-(metheno)benzo[b]cyclopenta[o]imidazo[1,5-h]pyrrolo[2,1-d][1]oxa[5,7,8,11]tetraazacyclohexadecine], the IC50 in assay [1] is less than 100 nM.
Consider `C[C@H]1Nc2ccc3ncc(n3n2)-c2nccc(n2)CCOc2ncc(F)cc21` [Example I-83, (4R,E)-5′-fluoro-4-methyl-6-oxa-3-aza-2(3,6)-imidazo[1,2-b]pyridazina-1(2,4)-pyrimidina-5(3,2)-pyridinacyclooctaphane], for which, in assay [1], the IC50 was less than 100 nM.
Consider `C[C@H]1Nc2ccc3ncc(n3n2)-c2cc(ccn2)N2CC[C@@H](C2)Oc2ccc(F)cc21` [Example I-42, (3^3S,6R,E)-5^4-fluoro-6-methyl-4-oxa-7-aza-1(3,6)-imidazo[1,2-b]pyridazina-2(2,4)-pyridina-3(1,3)-pyrrolidina-5(1,2)-benzenacycloheptaphane], for which the IC50 in assay [1] is less than 100 nM.
As to `C[C@H]1Nc2ccc3ncc(n3n2)-c2cc(ccn2)N2CCC[C@H](C2)Oc2ccc(F)cc21` [Example I-43, (3^3R,6R,E)-5^4-fluoro-6-methyl-4-oxa-7-aza-1(3,6)-imidazo[1,2-b]pyridazina-2(2,4)-pyridina-3(1,3)-piperidina-5(1,2)-benzenacycloheptaphane], the IC50 in assay [1] was less than 100 nM.
In the case of `Fc1ccc2c(c1)[C@H]1CCCN1c1ccc3ncc(n3n1)-c1cc(ccn1)CCO2` [Example I-53, (3^2R,E)-4^5-fluoro-5-oxa-2(3,6)-imidazo[1,2-b]pyridazina-1(2,4)-pyridina-3(1,2)-pyrrolidina-4(1,2)-benzenacycloheptaphane], in assay [1], the IC50 was less than 100 nM.
With `C[C@@H]1Cc2ccnc(c2)-c2cnc3ccc(nn23)N[C@H](C)c2cc(F)cnc2O1` [Example I-36, (4R,7R,E)-5^5-fluoro-4,7-dimethyl-6-oxa-3-aza-2(3,6)-imidazo[1,2-b]pyridazina-1(2,4), 5(3,2)-dipyridinacyclooctaphane], the IC50 in assay [1] was less than 100 nM.
On to `Fc1ccc2c(c1)[C@H]1CCCN1c1ccc3ncc(n3n1)-c1cc(ncn1)CO2` [Example I-57, (14bR,E)-13-fluoro-14b,15,16,17-tetrahydro-9H-1,19-etheno-4,8-(metheno)benzo[n]imidazo[5,1-h]pyrrolo[1,2-l][1]oxa[4,6,9,10,12]pentaazacyclopentadecine], for which the IC50 in assay [1] was less than 100 nM.
Turning to `Fc1ccc2c(c1)[C@H]1CCCN1c1ccc3ncc(n3n1)-c1cc(ccn1)[C@@H]1CCC[C@H]1O2` [Example I-46, (8aS,11aR,16bR,E)-15-fluoro-8a,10,11,11a,16b,17,18,19-octahydro-9H-1,21-etheno-4,8-(metheno)benzo[b]cyclopenta[o]imidazo[1,5-h]pyrrolo[2,1-d][1]oxa[5,7,8,11]tetraazacyclohexadecine], the IC50 in assay [1] is less than 100 nM.
Still for that read-out and setting: with `Fc1cnc2c(c1)[C@H]1CCCN1c1ccc3ncc(n3n1)-c1cc(cnn1)CCO2` [Example I-93, (3^2R,E)-4^5-fluoro-5-oxa-2(3,6)-imidazo[1,2-b]pyridazina-1(3,5)-pyridazina-4(3,2)-pyridina-3(1,2)-pyrrolidinacycloheptaphane] the figure was less than 100 nM; with `C[C@H]1Nc2ccc3ncc(n3n2)-c2cc(ccn2)CCOc2ccc(F)cc21` [Example I-76, (4R,E)-5-fluoro-4-methyl-6-oxa-3-aza-2(3,6)-imidazo[1,2-b]pyridazina-1(2,4)-pyridina-5(1,2)-benzenacyclooctaphane], less than 100 nM; with `C[C@H]1Nc2ccc3ncc(n3n2)-c2cc(ncn2)CCOc2ccc(F)cc21` [Example I-74, (4R,E)-5′-fluoro-4-methyl-6-oxa-3-aza-2(3,6)-imidazo[1,2-b]pyridazina-1(4,6)-pyrimidina-5(1,2)-benzenacyclooctaphane], less than 100 nM.
For the compound `C[C@H]1Nc2ccc3ncc(n3n2)-c2nccc(n2)COc2ncc(F)cc21` [Example I-79, (6R,E)-5^5-fluoro-6-methyl-4-oxa-7-aza-1(3,6)-imidazo[1,2-b]pyridazina-2(2,4)-pyrimidina-5(2,3)-pyridinacycloheptaphane], the IC50 in assay [1] is less than 100 nM.
As to `CC1Nc2ccc3ncc(n3n2)-c2cc(ccn2)OCc2ccc(F)cc21` (stereo not shown) [Example I-13, (E)-5^4-fluoro-6-methyl-3-oxa-7-aza-1(3,6)-imidazo[1,2-b]pyridazina-2(2,4)-pyridina-5(1,2)-benzenacycloheptaphane], in assay [1], the IC50 is less than 100 nM.
With `Fc1ccc2c(c1)[C@H]1CCCN1c1ccc3ncc(n3n1)-c1cc(cnn1)CCO2` [Example I-91, (3^2R,E)-4^5-fluoro-5-oxa-2(3,6)-imidazo[1,2-b]pyridazina-1(3,5)-pyridazina-3(1,2)-pyrrolidina-4(1,2)-benzenacycloheptaphane], the IC50 in assay [1] was less than 100 nM.
